According to US20170172909A1, “Method Of Counteracting The Impact Of Chronic Stress On Skin” (ELC MANAGEMENT LLC, priority 2015, published 2017):
“And” between values parts separate entries of the source, which are not always exact repeats. Equal entries are not always repeated.

Legend:
progerin = assay: Progerin immunostaining of ex vivo skin explants; type: cell-based, human
Procedure: (§4) After fixation for 24 hours in buffered formalin, the samples were dehydrated and impregnated in paraffin using a Leica TP 1010 dehydration automat. The samples were then embedded using a Leica EG 1160 embedding station. 5-μm-thick sections were made using a Leica RM 2125 Minot-type microtome, and the sections were then mounted on Superfrost® histological glass slides.
(§5) The immunostaining was assessed by microscopical observation.
Progerin staining intensity was measured in a similar way as for p21.

p21 = p21 immunostaining of ex vivo skin explants; type: cell-based, human
Procedure: as §4, §5
The evaluation of the p21 immunostained pictures was based on both the number of cells that were stained as well as the staining intensity in each cell.

[1] = system: skin explants from the abdominal tissue; assay: General morphology of ex vivo skin explants, cortisol-induced premature senescence (Masson's trichrome); type: cell-based, human
Procedure: Thirty three skin explants from the abdominal tissue of a donor, of an average diameter of 10 mm (±1 mm) were prepared.
The formula with 0.1% cortisol was applied topically on days 2, 5, 6 and 7.
On day 0, the three explants from the batch BO were collected and cut in two parts. One half was fixed in buffered formalin, and the other half was frozen at −80° C. On day 9, three explants from all other batches were collected and processed in the same way.
Sections were then mounted on Superfrost® plus silanized glass slides. The microscopical observations were made using a Leica DMLB or Orthoplan microscope. Pictures were digitized with a numeric DP72 Olympus camera with CellD storing software.
The observation of the general morphology was realized after staining of paraffinized sections according to Masson's trichrome, Goldner variant.

elastin = assay: Elastin release by HDFs (Elastin Elisa); type: cell-based, human; conditions: 2.5 mg/ml, 72 hours
Procedure: (§1) HDFs, at passage 4, were plated in 96 well plates. After the cells reached confluency they were placed under starvation conditions for 48 hours. Cells then were treated with test materials in cell medium for 72 hours after which the medium was collected for analysis of elastin (Elastin Elisa assay, SOP D.33). Cell viability also was measured using the MTT assay (SOP D.29). Statistical analysis was performed with an ANOVA+Fisher LSD post hoc test. A p value of less than 0.05 was considered significant.
(§2) The results are presented as pg/ml elastin corrected for viability. The percent increase in elastin release is calculated as:
(§3) % increase=[Amount Elastinactive/Amount Elastincontrol]×100−100

[2] = system: Human dermal fibroblasts (HDFs); assay: Free floating fibroblast-populated collagen lattice (FPCL) contraction; type: cell-based
Procedure: Human dermal fibroblasts (HDFs, passages 6-7) were maintained in Falcon 75 cm^2 tissue culture flasks in DMEM supplemented with 10% FBS. Cells were harvested from monolayer culture, and placed in 6-well culture plates (1×10^5 cells/well). Cells were pretreated with 25 μM hydrocortisone or with a combination of 25 μM hydrocortisone and different concentrations of test materials for 24 hours before being applied to free floating fibroblast populated collagen lattices.
Gels containing collagen HDFs were prepared as described by Tomasek, J. J., et al. (Fibroblast contraction occurs on release of tension in attached collagen lattices: dependency on an organized actin cytoskeleton and serum. Anat. Rec., 1992, March; 232(3):359-68), incorporated herein by reference in its entirety, with modifications as follows. Briefly, collagen solution (Corning, Rat tail, 354236), concentrated DMEM, 0.1N NaOH and FBS, were gently mixed at 4° C., giving a suspension at a final density of 5×10^5 cells and 3 mg/ml collagen. The collagen/cell suspension (2 ml total) was poured on 35 mm-uncoated dish and allowed to polymerize for 45 minutes at 37° C. Then lattices were released and gels were allowed to float in the medium. […]
Fibroblast contractility was assessed by measuring changes in the surface area of collagen I gels mediated by fibroblasts. […] Thereafter, lattice diameter was measured. […]

[3] = system: fibroblasts from abdominal skin; assay: GlaSbox contractile forces on collagen lattices, with or without cortisol, abdominal fibroblasts; type: cell-based, human; conditions: cortisol 250 ng/ml
Text: In this study, the GlaSbox® system was used to analyze the effect of cortisol, with and without test materials, on the contractile forces generated by fibroblasts populating collagen lattices. The GlaSbox® device differs from other collagen lattice systems in that it uses a fixed, non-floating collagen lattice where the diameter of the collagen lattice remains constant but electrodes measure the actual contractile forces exerted by the cells on the collagen lattice.
Fibroblasts were obtained from eyelid and abdominal skin of Chinese female donors. The effect of Biobenefity and Albizia julibrissin on the contractile forces of fibroblasts originating from eyelid, with or without exposure to cortisol (250 ng/ml), were evaluated.
Two fibroblast cell types, one originating from eyelid and the other one from abdominal skin tissue, were purchased from Tebu-Bio (Boechout, Belgium). These cell types were isolated from different donors, each being a person. […] The forces are expressed as arbitrary units.
Each Glasbox® curve was fitted with GraphPad Prism® software to determine the area under the curve (AUC) and the maximum of contraction (Max). […] Data are expressed as mean±standard deviation. The measurement of contractile forces was analyzed by means of a variance analysis with two factors (group versus control and time). […]

fibroblasts from eyelid = assay: GlaSbox contractile forces on collagen lattices, with or without cortisol, eyelid fibroblasts; type: cell-based, human; conditions: cortisol 250 ng/ml
Text: In this study, the GlaSbox® system was used to analyze the effect of cortisol, with and without test materials, on the contractile forces generated by fibroblasts populating collagen lattices. The GlaSbox® device differs from other collagen lattice systems in that it uses a fixed, non-floating collagen lattice where the diameter of the collagen lattice remains constant but electrodes measure the actual contractile forces exerted by the cells on the collagen lattice. Fibroblasts were obtained from eyelid and abdominal skin of Chinese female donors. The effect of Biobenefity and Albizia julibrissin on the contractile forces of fibroblasts originating from eyelid, with or without exposure to cortisol (250 ng/ml), were evaluated. Two fibroblast cell types, one originating from eyelid and the other one from abdominal skin tissue, were purchased from Tebu-Bio (Boechout, Belgium). These cell types were isolated from different donors, each being a person. The fibroblasts were embedded three-dimensionally in hydrated collagen gel lattices. […] The forces are expressed as arbitrary units. […] Data are expressed as mean±standard deviation. The measurement of contractile forces was analyzed by means of a variance analysis with two factors (group versus control and time). […]

fibrillin-1 = assay: Fibrillin-1 release by HDFs (sandwich ELISA); type: cell-based, human; conditions: positive control, 100 ng/ml, 24 hours
Procedure: Fibrillins, glycoproteins secreted by fibroblasts, are essential for the formation of elastic fibers found in connective tissue. Test compounds Mitostime (extract of Laminaria digitata) and Milk Peptide Complex (MPC or whey protein, available from CLR, Germany) were evaluated for their capacity to stimulate the synthesis of fibrillin-1 in HDFs.
An aliquot of a selected fibroblast cell line (HDFs) was thawed, placed into culture, and allowed to establish good growth before passaging into a 24-well plate (5×10^4 cells/1 ml well). After overnight adhesion to the well, test compounds were added to the medium at three different concentrations and the cells were incubated for 24 hours. A positive control of 100 ng/ml TGFβ1, was included. The negative controls used were 0.1% BSA and 0.1% EtOH. After 24 hours, medium was harvested, centrifuged, and transferred to fibrillin-1 sandwich ELISA plates to determine the amount of fibrillin released.

tropoelastin = assay: Tropoelastin synthesis by HDFs; type: cell-based, human; conditions: 5 pg/ml
Procedure: as §1, §2, §3

[4] = system: fibroblasts from an abdominoplasty; assay: GlaSbox contractile forces of fibroblasts on collagen lattices (stimulation, Example 3); type: cell-based, human; conditions: 2.5 ng/ml, 24 hours
Text: In this study, the GlaSbox® system was used to analyze the effect of cosmetic raw materials, TGFβ1, Taisoh Liquid B Jujube Extract (Ziziphus jujuba fruit), available from Ichimaru Pharcos, and Uplevity, available from Lipotec. TGFβ1, used in this study as a positive control, is known to play a role in cellular functions, including cell proliferation, differentiation, wound healing and matrix-related processes. Taisoh Liquid B Jujube Extract has been reported to stimulate wound healing. […]
Fibroblasts were embedded three-dimensionally in hydrated collagen gels composed of 6 volumes of 1.76× (DMEMc, NaHCO3, NaOH, antibiotics), 3 volumes rat tail type I collagen (2 mg/ml) and 1 volume of cellular suspension (8×10^5 cells/ml) using a modified version of the technique developed by Bell et al. (Production of a tissue-like structure by contraction of collagen lattices by human fibroblasts of different proliferative potential in vitro. Proc. Natl. Acad. Sci. USA 76, 1274-1278 (1979). The lattice mixture was poured into the rectangular culture plate of the GlaSbox® and polymerized in less than 30 minutes at 37° C. […] The forces were expressed as arbitrary units (AU) after 24 hours of measurement. […]

[5] = day 9, with 0.1% cortisol, Biwa leaf, Biobenefity, Juvinity 0.5% w/v, IBR Dormin 0.1% w/v
[6] = 0.1% cortisol, day 9, versus untreated

## CC(C)=CCCC(C)=CCCC(C)=CCCC(C)=CCCC(C)O (stereo not shown) [Juvinity, Geranylgeranyl-2-propanol]
progerin; [5]
  Effect on cortisol-induced increase in progerin staining intensity: did not show a beneficial effect
p21; [5]
  Effect on cortisol-induced increase in p21 staining intensity: partially reduce
[1]; day 9, absence of cortisol, Biwa leaf, Biobenefity, Juvinity 0.5% w/v, IBR Dormin 0.1% w/v in medium
  General morphology of explants: altered morphology, with pycnotic nuclei and cellular spongiosis
[1]; day 9, with topical 0.1% cortisol, Biwa leaf, Biobenefity, Juvinity 0.5% w/v, IBR Dormin 0.1% w/v
  Effect on cortisol-induced morphology (epidermal thickness): did not have any beneficial effect

## O=C[C@H](O)[C@H](O)[C@H](O)CO [Riboxyl, D-ribose]
elastin
  Increase in elastin synthesis versus untreated cells: 66%

## C[C@]12CCC(=O)C=C1CC[C@@H]1[C@@H]2[C@@H](O)C[C@@]2(C)[C@H]1CC[C@]2(O)C(=O)CO [cortisol]
progerin; [6]
  Progerin staining intensity: increased from weak to moderate
p21; [6]
  p21 staining intensity (semi-quantitative grading): from very weak to moderate
[2]; 25 μM, listed as hydrocortisone
  Decrease of lattice contraction versus untreated lattices: 11.8% and 9%
[2]; 50 μM
  Decrease of lattice contraction versus untreated lattices: 18%
[3]
  Contractile forces (AUC and maximum contractile force): significant decrease
Fibroblasts from eyelid
  Contractile forces (AUC and maximum contractile force): significant decrease
[1]; 0.1% cortisol topically during 7 days (day 2 to day 9)
  General morphology of explants: moderate epidermal atrophy

## TGFβ1: Transforming Growth Factor β, secreted protein used as a positive control
fibrillin-1
  Fibrillin release at baseline level: stimulate the fibrillin release
tropoelastin
  Increase in tropoelastin synthesis versus untreated cells: 175%
[4]
  Increase of contractile forces (AUC): 25.5%
  Increase of maximum contraction: 26.0%
